How the values were obtained:
Type in all cases: cell-based
Enterobacter cloacae = test: MIC against Gram-negative bacteria: Enterobacter cloacae; conditions: E. cloacae; 10 h cultivation at 37° C.; 5×10^5 CFU/mL
Method in brief: (§1)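 Two-fold serial dilutions of each purified human EGF domain protein, three replicate wells per level, were combined with bacteria at a final 5×10^5 CFU/mL in LB. Cultures were shaken at 175 rpm, 37° C. The MIC was taken as the minimum concentration preventing growth.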

Citrobacter diversus = test: MIC against Gram-negative bacteria: Citrobacter diversus; conditions: C. diversus; 10 h cultivation at 37° C.; 5×10^5 CFU/mL
Method in brief: as §1

Moraxella catarrhalis = test: MIC against Gram-negative bacteria: Moraxella catarrhalis; conditions: M. catarrhalis; 10 h cultivation at 37° C.; 5×10^5 CFU/mL
Method in brief: as §1

E. coli BL21 = test: MIC against Gram-negative bacteria: E. coli BL21; conditions: E. coli BL21; 10 h cultivation at 37° C.; 5×10^5 CFU/mL
Method in brief: as §1

Serratia marcescens = test: MIC against Gram-negative bacteria: Serratia marcescens; conditions: S. marcescens; 10 h cultivation at 37° C.; 5×10^5 CFU/mL
Method in brief: as §1

Klebsiella pneumonia = test: MIC against Gram-negative bacteria: Klebsiella pneumonia; conditions: K. pneumonia; 10 h cultivation at 37° C.; 5×10^5 CFU/mL
Method in brief: as §1

Aeromonas hydrophila = test: MIC against Gram-negative bacteria: Aeromonas hydrophila; conditions: A. hydrophila; 10 h cultivation at 37° C.; 5×10^5 CFU/mL
Method in brief: as §1

E. coli DH5α = test: Antibacterial activity: MIC and growth curve against E. coli DH5α in 96-well plate; conditions: minimal inhibitory concentration against E. coli DH5α; 96-well plate, 5×10^5 CFU/mL, 37° C., judged after 8 h
Method in brief: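 Log-phase bacteria (OD600 ~0.5) resuspended in LB at 5×10^5 CFU/mL, exposed to recombinant protein at 50, 25, 12.5 μg/mL final in triplicate, 37 °C shaking at 175 rpm. OD600 read every 30 min; MIC is lowest concentration showing no growth.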

Proteus vulgaris = test: MIC against Gram-negative bacteria: Proteus vulgaris; conditions: P. vulgaris; 10 h cultivation at 37° C.; 5×10^5 CFU/mL
Method in brief: as §1

Pseudomonas aeruginosa = test: MIC against Gram-negative bacteria: Pseudomonas aeruginosa; conditions: P. aeruginosa; 10 h cultivation at 37° C.; 5×10^5 CFU/mL
Method in brief: as §1

Proteus mirabilis = test: MIC against Gram-negative bacteria: Proteus mirabilis; conditions: P. mirabilis; 10 h cultivation at 37° C.; 5×10^5 CFU/mL
Method in brief: as §1

Substance | MIC (μg/mL) E. cloacae (Enterobacter cloacae) | MIC (μg/mL) C. diversus (Citrobacter diversus) | MIC (μg/mL) M. catarrhalis (Moraxella catarrhalis) | MIC (μg/mL) E. coli BL21 (E. coli BL21) | MIC (μg/mL) S. marcescens (Serratia marcescens) | MIC (μg/mL) K. pneumonia (Klebsiella pneumonia) | MIC (μg/mL) A. hydrophila (Aeromonas hydrophila) | MIC (E. coli DH5α) | MIC (μg/mL) P. vulgaris (Proteus vulgaris) | MIC (μg/mL) P. aeruginosa (Pseudomonas aeruginosa) | MIC (μg/mL) P. mirabilis (Proteus mirabilis)
PRT797 (WGPNCSVSCSCENGGSCSPEDGSCECAPGFRGPLCQ; listed as Homo sapiens) | 50 µg/mL | 50 µg/mL | 12.5 µg/mL | 12.5 µg/mL | 12.5 µg/mL | 25 µg/mL | 12.5 µg/mL | 50 µg/mL | 12.5 µg/mL | 50 µg/mL | 12.5 µg/mL
PRT798 (FGQDCAQLCSCANNGTCSPIDGSCQCFPGWIGKDCS; listed as Homo sapiens) | 12.5 µg/mL | 12.5 µg/mL | 50 µg/mL | 25 µg/mL | 25 µg/mL | 50 µg/mL | 50 µg/mL | 12.5 µg/mL | 50 µg/mL | 12.5 µg/mL | 12.5 µg/mL
PRT799 (FHACSCHNGASCSAEDGACHCTPGWTGLFCT; listed as Homo sapiens) | 5 µg/mL | 12.5 µg/mL | 12.5 µg/mL | 12.5 µg/mL | 25 µg/mL | 12.5 µg/mL | 12.5 µg/mL | 25 µg/mL | 50 µg/mL | 12.5 µg/mL | 12.5 µg/mL
PRT800 (GRVCQCQNGASCDHISGKCTCRTGFTGQHCE; listed as Homo sapiens) | 50 µg/mL | 50 µg/mL | 12.5 µg/mL | 50 µg/mL | 25 µg/mL | 12.5 µg/mL | 12.5 µg/mL | 25 µg/mL | 50 µg/mL | 25 µg/mL | 12.5 µg/mL
PRT801 (FGYGCQQLCECMNNSTCDHVTGTCYCSPGFKGIRCD; listed as Homo sapiens) | 12.5 µg/mL | 12.5 µg/mL | 12.5 µg/mL | 12.5 µg/mL | 12.5 µg/mL | 25 µg/mL | 25 µg/mL | 25 µg/mL | 12.5 µg/mL | 50 µg/mL | 12.5 µg/mL
PRT802 (SNRCQCQNGALCNPITGACVCAAGFRGWRCE; listed as Homo sapiens) | 12.5 µg/mL | 25 µg/mL | 12.5 µg/mL | 12.5 µg/mL | 12.5 µg/mL | 12.5 µg/mL | 12.5 µg/mL | 12.5 µg/mL | 25 µg/mL | 25 µg/mL | 25 µg/mL
PRT803 (HGKGCQLPCQCRHGASCDPRAGECLCAPGYTGVYCE; listed as Homo sapiens) | 50 µg/mL | 25 µg/mL | 100 µg/mL | 50 µg/mL | 50 µg/mL | 25 µg/mL | 25 µg/mL | 50 µg/mL | 12.5 µg/mL | 12.5 µg/mL | 50 µg/mL
PRT804 (HGAHCELRCPCQNGGTCHHITGECACPPGWTGAVCA; listed as Homo sapiens) | 12.5 µg/mL | 12.5 µg/mL | 50 µg/mL | 50 µg/mL | 50 µg/mL | 50 µg/mL | 12.5 µg/mL | 12.5 µg/mL | 25 µg/mL | 12.5 µg/mL | 12.5 µg/mL
PRT805 (FGQNCSQDCPCHHGGQCDHVTGQCHCTAGYMGDRCQ; listed as Homo sapiens) | 12.5 µg/mL | 12.5 µg/mL | 50 µg/mL | 50 µg/mL | 12.5 µg/mL | 12.5 µg/mL | 12.5 µg/mL | 12.5 µg/mL | 50 µg/mL | 12.5 µg/mL | 12.5 µg/mL
PRT806 (FGFQCSQHCDCHNGGQCSPTTGACECEPGYKGPRCQ; listed as Homo sapiens) | 12.5 µg/mL | 12.5 µg/mL | 25 µg/mL | 25 µg/mL | 25 µg/mL | 12.5 µg/mL | 12.5 µg/mL | 12.5 µg/mL | 25 µg/mL | 12.5 µg/mL | 12.5 µg/mL
PRT807 (YGDGCQLPCTCQNGADCHSITGGCTCAPGFMGEVCA; listed as Homo sapiens) | 50 µg/mL | 25 µg/mL | 50 µg/mL | 50 µg/mL | 12.5 µg/mL | 12.5 µg/mL | 12.5 µg/mL | 25 µg/mL | 50 µg/mL | 25 µg/mL | 12.5 µg/mL
PRT808 (YGPNCSSICSCNNGGTCSPVDGSCTCKEGWQGLDCT; listed as Homo sapiens) | 25 µg/mL | 25 µg/mL | 50 µg/mL | 50 µg/mL | 50 µg/mL | 50 µg/mL | 12.5 µg/mL | 25 µg/mL | 12.5 µg/mL | 12.5 µg/mL | 25 µg/mL
PRT809 (NESCTCANGAACSPIDGSCSCTPGWLGDTCE; listed as Homo sapiens) | 50 µg/mL | 25 µg/mL | 50 µg/mL | 12.5 µg/mL | 25 µg/mL | 25 µg/mL | 12.5 µg/mL | 25 µg/mL | 12.5 µg/mL | 25 µg/mL | 25 µg/mL
PRT811 (FGKNCSFSCSCQNGGTCDSVTGACRCPPGVSGTNCE; listed as Homo sapiens) | 12.5 µg/mL | 12.5 µg/mL | 12.5 µg/mL | 25 µg/mL | 25 µg/mL | 12.5 µg/mL | 12.5 µg/mL | 12.5 µg/mL | 25 µg/mL | 12.5 µg/mL | 25 µg/mL
PRT812 (YGKHCRKKCNCANRGRCHRLYGACLCDPGLYGRFCH; listed as Homo sapiens) | 50 µg/mL | 12.5 µg/mL | 50 µg/mL | 12.5 µg/mL | 12.5 µg/mL | 25 µg/mL | 25 µg/mL | 12.5 µg/mL | 50 µg/mL | 12.5 µg/mL | 12.5 µg/mL
PRT813 (FGVNCSSSCSCGGAPCHGVTGQCRCPPGRTGEDCE; listed as Homo sapiens) | 25 µg/mL | 25 µg/mL | 25 µg/mL | 50 µg/mL | 12.5 µg/mL | 50 µg/mL | 50 µg/mL | 50 µg/mL | 50 µg/mL | 50 µg/mL | 25 µg/mL
